For the assay, the target named is T1, TNF-α (Homo sapiens, UniProt P01375).
T1 construct: human recombinant TNF-α (PeproTech), intact homotrimer
The experiment in a line: competitive binding by SEC/ultrafiltration with LC-MS; SPD304 displaced and bound sennoside B detected. Conditions: read-out: % inhibition of SPD304 signal (at 3.5 μM).

The text below walks through data of publication PMC8465676, “A Novel Competitive Binding Screening Assay Reveals Sennoside B as a Potent Natural Product Inhibitor of TNF-α” (Biomedicines, 2021).

T1 sequence (P01375 77-233): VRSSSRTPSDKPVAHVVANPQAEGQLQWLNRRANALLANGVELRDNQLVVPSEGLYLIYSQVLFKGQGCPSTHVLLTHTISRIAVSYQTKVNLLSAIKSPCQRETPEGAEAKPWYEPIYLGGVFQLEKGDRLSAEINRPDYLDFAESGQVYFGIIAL

The inhibition is the percentage by which the read-out fell short of the control. Consider `O=C(O)c1cc(O)c2c(c1)[C@@H]([C@H]1c3cc(C(=O)O)cc(O)c3C(=O)c3c(O[C@@H]4O[C@H](CO)[C@@H](O)[C@H](O)[C@H]4O)cccc31)c1cccc(O[C@@H]3O[C@H](CO)[C@@H](O)[C@H](O)[C@H]3O)c1C2=O` [compound 23, sennoside B], for which the inhibition at 3.5 µM came out at 89.4%.
